From PubChem BioAssay (NCI) come the findings set out here.

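Five compound concentrations were applied to cells in 96-well plates for 48 hours; endpoints were derived by simple linear interpolation of the resulting dose-response curve. Here, GI50 denotes the concentration required for 50% inhibition of growth. TGI: concentration producing complete growth inhibition.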

Test systems include OVCAR-4 ovarian; HCC-2998 colon; NCI-H522 lung; RXF 393 renal; NCI-H226 lung; OVCAR-5 ovarian; BT-549 breast; DU-145 prostate; NCI-H23 lung; EKVX NSCLC.
Holding throughout (test): NCI tumour cell line growth inhibition, 48 h

Turning to `CCC[CH2][Sn]1([CH2]CCC)[O]C2C(CO)OC(n3ccc(N)nc3=O)C2[O]1` (stereo not drawn), the GI50 in the experiment on OVCAR-4 ovarian was 1330 nM; in the experiment on HCC-2998 colon it was 1660 nM; with NCI-H522 lung, 186 nM; in the experiment with RXF 393 renal, 1220 nM; in the experiment on NCI-H226 lung, 2020 nM; with OVCAR-5 ovarian it was 1.57 µM. The GI50 in the experiment with BT-549 breast is 1.42 µM; in the experiment with DU-145 prostate, 1340 nM; in the experiment with NCI-H23 lung, 1.35 µM. The TGI in the experiment with OVCAR-4 ovarian came out at 2.68 µM; with HCC-2998 colon, 3.2 µM; in the experiment with NCI-H522 lung, 0.424 µM; with RXF 393 renal, 2.48 µM; in the experiment with NCI-H226 lung it was 4.25 µM; with OVCAR-5 ovarian, 3.03 µM. Moreover, the TGI with BT-549 breast is 2.73 µM; in the experiment with DU-145 prostate, 2.61 µM; with NCI-H23 lung, 3.08 µM.

Take `CC(C)(C)c1[nH]nc2c1C(c1cc3ccccc3[nH]c1=O)Nc1cc(C(=O)OCc3ccccc3)ccc1N2` (stereo not drawn): the GI50 in the experiment with OVCAR-4 ovarian is 4120 nM; in the experiment with HCC-2998 colon, 4080 nM; in the experiment with NCI-H522 lung, 3110 nM; in the experiment with NCI-H226 lung, 3200 nM; with OVCAR-5 ovarian, 4.05 µM; with BT-549 breast it was 3.35 µM. The values for the GI50 in the experiment on DU-145 prostate and in the experiment on NCI-H23 lung were 6040 nM and 5.14 µM, respectively. For the same molecule, the TGI in the experiment on OVCAR-4 ovarian was above 100 µM; in the experiment on HCC-2998 colon it was above 100 µM; in the experiment on NCI-H522 lung it was 8.78 µM; in the experiment with NCI-H226 lung it was above 100 µM; in the experiment with OVCAR-5 ovarian, above 100 µM; in the experiment with BT-549 breast, above 100 µM. For the same molecule, the TGI with DU-145 prostate and in the experiment with NCI-H23 lung was above 100 µM throughout.

`COc1ccccc1CNCCCN1C(=O)c2ccc3c4c(ccc(c24)C1=O)C(=O)N(CCCN)C3=O`: the GI50 was 230 nM with OVCAR-4 ovarian; 1800 nM in the experiment on HCC-2998 colon; 1510 nM with NCI-H522 lung; 628 nM in the experiment on RXF 393 renal; 1850 nM with NCI-H226 lung; 1.6 µM with OVCAR-5 ovarian. Also, the GI50 was 1.58 µM with BT-549 breast, 1380 nM in the experiment on DU-145 prostate and 0.94 µM in the experiment with NCI-H23 lung. Further, the TGI in the experiment with OVCAR-4 ovarian amounted to 0.843 µM; in the experiment with HCC-2998 colon, 3.58 µM; with NCI-H522 lung, 2.97 µM; with RXF 393 renal, 1.83 µM; with NCI-H226 lung it was 3.92 µM; in the experiment with OVCAR-5 ovarian, 3.56 µM. Moreover, the TGI in the experiment with BT-549 breast was determined as 2.99 µM; in the experiment on DU-145 prostate, 2.71 µM; in the experiment with NCI-H23 lung, 3.74 µM.

For the molecule `CC1=C(C(=O)N(C)c2ccc(Cl)c(C(=O)OC(C)C)c2)SCCO1`, the TGI in the experiment on OVCAR-4 ovarian, in the experiment with HCC-2998 colon, in the experiment on NCI-H522 lung, in the experiment with NCI-H226 lung, with OVCAR-5 ovarian and with BT-549 breast was above 100 µM in each case. Moreover, the TGI in the experiment with EKVX NSCLC, with DU-145 prostate and in the experiment with NCI-H23 lung was above 100 µM in each case.

In the case of `O=[N+]([O-])c1ccc(N2CCC(CCCC3CCN(c4ccc([N+](=O)[O-])cc4[N+](=O)[O-])CC3)CC2)c([N+](=O)[O-])c1`, the TGI was determined as 33.4 µM in the experiment with OVCAR-4 ovarian; 42.8 µM with NCI-H522 lung; 35.4 µM in the experiment with RXF 393 renal; 56.6 µM in the experiment with NCI-H226 lung; 45.7 µM in the experiment with OVCAR-5 ovarian; 71.8 µM in the experiment with BT-549 breast. Besides, the TGI is 34.3 µM in the experiment with EKVX NSCLC, 61.3 µM with DU-145 prostate and 54.3 µM with NCI-H23 lung.

Take `CN(C)C(=O)c1cnc2oc3ccc(O)cc3c2c1-c1ccccc1`: the GI50 in the experiment on NCI-H522 lung was above 25000 nM; in the experiment with RXF 393 renal it was above 25000 nM; in the experiment with OVCAR-5 ovarian, 6.94 µM; in the experiment with BT-549 breast, 6.2 µM; in the experiment with EKVX NSCLC, above 25 µM; in the experiment with DU-145 prostate, above 25000 nM. Also, the GI50 in the experiment with NCI-H23 lung was 11.5 µM. In addition, the TGI with NCI-H522 lung, in the experiment with RXF 393 renal, in the experiment on OVCAR-5 ovarian, in the experiment with BT-549 breast, in the experiment on EKVX NSCLC and with DU-145 prostate was above 25 µM each time. This molecule returned a TGI in the experiment on NCI-H23 lung above 25 µM.

Take `Nc1c(C(=O)c2cccc(C#CCO)c2)cnn1-c1ccc(F)cc1`: the GI50 in the experiment on OVCAR-4 ovarian is above 23300 nM; with HCC-2998 colon, above 25000 nM; in the experiment with NCI-H522 lung, above 25000 nM; in the experiment on RXF 393 renal, above 25000 nM; with NCI-H226 lung, above 25000 nM; in the experiment with OVCAR-5 ovarian it was above 25 µM. Also, the GI50 in the experiment with BT-549 breast was above 25 µM; in the experiment on DU-145 prostate, above 25000 nM; with NCI-H23 lung, above 25 µM. Besides, the TGI in the experiment with OVCAR-4 ovarian, in the experiment on HCC-2998 colon, with NCI-H522 lung, in the experiment on RXF 393 renal, in the experiment with NCI-H226 lung and in the experiment with OVCAR-5 ovarian was above 25 µM each time. Moreover, the TGI with BT-549 breast, in the experiment on DU-145 prostate and in the experiment with NCI-H23 lung was above 25 µM throughout.

With `N#Cc1nc2c(S(=O)(=O)c3ccc(Cl)cc3)c(N)n(CCCN3CCOCC3)c2nc1C#N`, the GI50 is 4780 nM in the experiment on OVCAR-4 ovarian; 18000 nM with HCC-2998 colon; 1050 nM in the experiment on RXF 393 renal; 2870 nM with NCI-H226 lung; 20.8 µM in the experiment on OVCAR-5 ovarian; 5.75 µM with BT-549 breast. Moreover, the GI50 in the experiment on EKVX NSCLC is 10.6 µM; in the experiment with DU-145 prostate it was 3790 nM; with NCI-H23 lung it was 7.41 µM. Also, the TGI in the experiment with OVCAR-4 ovarian is above 100 µM; in the experiment with HCC-2998 colon, 33.7 µM; in the experiment with RXF 393 renal, 5.21 µM; with NCI-H226 lung it was 13.5 µM; with OVCAR-5 ovarian, 54.9 µM; with BT-549 breast, 42 µM. Further, the TGI with EKVX NSCLC was 22.7 µM; in the experiment on DU-145 prostate, 19.1 µM; with NCI-H23 lung it was 42.7 µM.

As for `Cc1[nH]c2ccc(F)cc2c1-c1nc2c3cccnc3c3ncccc3c2[nH]1`, the GI50 was 96.6 nM with OVCAR-4 ovarian; 321 nM in the experiment with HCC-2998 colon; 354 nM in the experiment on RXF 393 renal; 351 nM in the experiment with NCI-H226 lung; 0.397 µM with OVCAR-5 ovarian; 0.295 µM with BT-549 breast. Besides, the GI50 with EKVX NSCLC is 0.278 µM; in the experiment on DU-145 prostate it was 308 nM; in the experiment with NCI-H23 lung, 0.418 µM. The TGI in the experiment on OVCAR-4 ovarian, in the experiment on HCC-2998 colon, in the experiment on RXF 393 renal, in the experiment with NCI-H226 lung, in the experiment on OVCAR-5 ovarian and with BT-549 breast was above 100 µM each time. For the same molecule, the TGI in the experiment with EKVX NSCLC, in the experiment on DU-145 prostate and in the experiment on NCI-H23 lung was above 100 µM each time.
